pEC50, pIC50: −log10 of the molar value. Entries after “also recorded” stand apart in the source; their conditions may differ. Read-outs that look alike come from different tables or passages of the source.

Experiment [1] has as its system PC12 cell-line expressing fragments of mutant Htt protein. As to the kind of experiment: oxidant (hydrogen peroxide)-mediated ATP loss and cell death in PC12 cells expressing mutant Htt fragments. Format: cell-based. Here is the method: To investigate the impact of oxidative stress on HD cells we measured ATP levels in lymphoblasts derived from HD patients and normal controls. ATP levels were measured using a commercially available-luciferase substrate. The luciferase enzyme uses ATP as a cofactor to produce one photon of light per substrate molecule (e.g., luciferin). The detectable output is luminescence. There is a linear relationship between the amount of signal output and the amount of ATP present in the sample. Thus, the amount of ATP present in a sample can be directly correlated with the measured output.
To investigate the basis for the hypersensitivity of mutant cells to oxidative stress, we employed a chemical biological approach and screened for small molecules capable of preventing an unsustainable loss of ATP in HD mutant cells. We developed an assay to measure oxidative stress-dependent ATP loss and subsequent cell-death. […] In addition, amino groups of each of CGI and K245-14 were predicted to form hydrogen bonds with Ser243 and Gly202 of PARP1.
To confirm that inhibition of PARP-1 activity could protect cells from ATP depletion, we tested two known enzyme inhibitors in PC12 cells challenged with oxidative stress. The PC12 cell line expressed fragments of mutant Htt protein as described above. […] Maintenance of ATP levels rescued by the PARP-1 inhibitors was dependent on the severity of cellular oxidation (FIG. 2A).

Experiment [2] deals with lymphoblasts derived from HD patients and normal controls. As to the kind of experiment: ATP levels in oxidant-treated normal and HD lymphoblasts. The experiment is classed as cell-based, human. Particulars: for rescue of loss of ATP: HD and wild type lymphoblasts, oxidant-treated; for pEC50: Homo sapiens, read-out: oxidant concentration for 50% loss of ATP. The procedure: (§1) FIGS. 3A-3F. FIG. 3A is a bar graph showing the effect of the PARP-1 inhibitor ANI on ATP levels in one normal (white) and two mutant HD (black) lymphoid cell lines treated with the oxidant (Oxd.) hydrogen peroxide. Lymphoblasts treated (T) with 200 μM oxidant were supplemented with mock inhibitor (DMSO) or with 5 μM PARP-1 inhibitor ANI. FIG. 3B is a bar graph showing the effect of the novel PARP-1 inhibitor K245 on ATP levels in oxidant (Oxd.) treated normal (white) and mutant HD (black) lymphoid cell lines. Hydrogen peroxide was the oxidant. Lymphoblasts treated (T) with 200 μM oxidant were supplemented with mock inhibitor (DMSO) or with 1, 5 or 10 μM PARP-1 inhibitor K245. FIG. 3C is a bar graph showing the effects of various compounds on relative ATP levels in wildtype (white) and mutant HD (black) striatal cells treated with 400 μM hydrogen peroxide. Basal ATP levels in cells untreated with oxidant were 100%. Oxidant-treated cells were supplemented with mock (DMSO) or PARP-1 inhibitors ANI and K245 at concentrations 0.1 μM, 1 μM, and 5 μM; and 1 μM, 5 μM, and 10 μM, respectively. […] FIG. 3D is a bar graph showing the effects of PARP-1 inhibitors ANI and K245 on basal ATP levels in normal (white) and mutant HD (black) lymphoblasts. Cells were supplemented with 5 μM ANI and 10 μM K245. Basal ATP levels in cells supplemented with mock (DMSO) were 100%. Cells were not treated with oxidant. FIG. 3E is a bar graph showing the effects of PARP-1 inhibitors on ATP levels in untreated striatal cells and in striatal cells treated with the mitochondrial blocker 3-NP. Wildtype cells are indicated by white bars and mutant HD cells are indicated by black bars. Untreated wildtype and mutant HD cells were supplemented with 5 μM ANI or 10 μM K245. Basal ATP levels in cells supplemented with mock (DMSO) were 100%. Cells treated with 5 μM 3-NP were supplemented with mock (DMSO), 1 or 5 μM ANI, or 1 μM, 5 μM, or 10 μM K245. FIG. 3F is a bar graph showing PARP-1 activity levels in untreated wildtype (7Q) and mutant HD (111Q) striatal cells, and in normal (30Q) and mutant HD (63Q) lymphoblasts.

In experiment [3] the test system is striatal cells derived from Huntingtin double knock-in mutant and wildtype transgenic mice. Kind of experiment: ATP levels in oxidant-treated wildtype and mutant HD striatal cells. Format: cell-based, mouse. Particulars: for rescue of loss of ATP: mutant and wild type striatal cells, oxidant-treated; for pEC50: read-out: oxidant concentration for 50% loss of ATP; for loss of ATP from basal ATP levels: 500 μM oxidant. The procedure:
as §1

Experiment [4] addresses recombinant PARP-1 (Homo sapiens, UniProt P09874). Kind of experiment: in vitro PARP-1 enzyme inhibition assay. The experiment is classed as biochemical. Here is the method:
FIGS. 2A-2F. FIG. 2A is a bar graph showing ATP levels in PC12 cells treated with the oxidant (Oxd.), hydrogen peroxide, in the absence (white) and in the presence (gray) of the PARP-1 inhibitor (ANI). FIG. 2B is a graph showing relative ATP levels in PC12 cells treated with hydrogen peroxide in the absence (solid line) and in the presence (dashed line) of 5 μM PARP-1 inhibitor ANI. FIG. 2C is a bar graph showing ATP levels in PC12 cells either untreated (U) or treated (T) with 200 μM oxidant and supplemented with the compounds indicated at the concentrations indicated. […] The IC50 of each inhibitor, determined by in vitro assay, is also shown. […] FIG. 2E is a bar graph showing the effect of different compounds on recombinant PARP-1 activity in vitro. PARP-1 enzymatic activities were determined in the absence (white) or presence (gray) of the testing compounds. […] FIG. 2F is a graph showing the calculated IC50 of inhibitor K245.
(See, e.g., Jagtap and Szabo, Nat Rev Drug Discov. 4:421-440, 2005; Ha and Snyder, Proc Natl Acad Sci USA. 96: 13978-13982, 1999; and Ying et al., Proc Natl Acad Sci USA 98:12227-12232, 2001). To test the effect of the compounds on PARP1 activity, an in vitro PARP-1 assay was used.
Identification of structural analogs. […] PARP-1 activity in the presence of decreasing concentrations of three different inhibitors is shown in the graph in FIG. 6.

The test system of experiment [5] is α-synuclein toxicity. As to the kind of experiment: Parkinson's Disease alpha-synuclein toxicity assay. Format: cell-based. The text has this:
Alpha-synuclein toxicity assays can also be used to identify compounds that positively impact cell survival and/or function. […] As noted, Parkinson's Disease is among the indications for the present compositions.

Setting [6] is: text and figure legend, read-out: IC50 for PARP-1 inhibition in vitro.
[7] abbreviates: Table 3, in vitro enzyme inhibition, read-out: IC50.

recombinant PARP-1, sequence (P09874 whole entry): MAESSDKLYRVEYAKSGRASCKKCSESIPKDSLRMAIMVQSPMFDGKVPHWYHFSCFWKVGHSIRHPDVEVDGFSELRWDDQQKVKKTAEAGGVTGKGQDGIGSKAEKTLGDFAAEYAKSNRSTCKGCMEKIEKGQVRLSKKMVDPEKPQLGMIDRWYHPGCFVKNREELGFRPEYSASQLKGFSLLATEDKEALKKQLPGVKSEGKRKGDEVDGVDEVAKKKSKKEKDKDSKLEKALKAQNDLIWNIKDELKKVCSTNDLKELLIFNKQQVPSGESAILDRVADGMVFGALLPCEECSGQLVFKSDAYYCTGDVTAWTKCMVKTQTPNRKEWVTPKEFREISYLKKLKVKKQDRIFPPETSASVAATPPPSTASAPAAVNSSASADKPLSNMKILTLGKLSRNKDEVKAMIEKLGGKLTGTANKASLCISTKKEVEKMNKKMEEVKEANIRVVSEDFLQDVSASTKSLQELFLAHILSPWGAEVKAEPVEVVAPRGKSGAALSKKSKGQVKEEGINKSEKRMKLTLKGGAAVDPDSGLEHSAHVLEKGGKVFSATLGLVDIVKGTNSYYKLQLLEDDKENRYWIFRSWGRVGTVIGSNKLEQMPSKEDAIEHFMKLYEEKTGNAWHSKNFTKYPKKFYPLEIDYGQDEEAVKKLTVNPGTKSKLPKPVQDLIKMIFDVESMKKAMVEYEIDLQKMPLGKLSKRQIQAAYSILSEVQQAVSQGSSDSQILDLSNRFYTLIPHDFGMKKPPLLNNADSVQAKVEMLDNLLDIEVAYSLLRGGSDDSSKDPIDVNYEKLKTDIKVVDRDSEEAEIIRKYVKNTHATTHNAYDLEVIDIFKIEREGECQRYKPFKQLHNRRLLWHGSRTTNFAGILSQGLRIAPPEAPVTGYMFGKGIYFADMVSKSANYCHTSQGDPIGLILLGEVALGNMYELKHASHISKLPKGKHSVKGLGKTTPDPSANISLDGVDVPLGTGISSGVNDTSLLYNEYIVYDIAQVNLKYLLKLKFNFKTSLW

On to `Nc1ccc2c3c(cccc13)C(=O)NC2=O` [4-ANI], for which, in experiment [1], the “rescue of oxidant-mediated ATP loss and cell death” value was “protected high levels of cellular ATP”. Moreover, the “rescue of loss of ATP” value in experiment [2] and in experiment [3] was “rescued loss of ATP” in each case.

Turning to `Nc1ccc2c3c(cccc13)C(=O)N2` [CG1], the “rescue of oxidant-mediated ATP loss and cell death” value in experiment [1] is “rescued oxidant-mediated ATP loss and cell death”. Besides, the pIC50 (usually the IC50 on a negative log10 scale, so that one unit is a factor of ten) in experiment [4] (setting [6]) was 5.60.

As to `CCN1C(=O)c2cccc3c(N)ccc1c23` [CG3, reference compound], the “rescue of oxidant-mediated ATP loss and cell death” value in experiment [1] was “did not protect cells from oxidative stress”. In addition, the PARP-1 inhibition result in experiment [4] (result in words) was “did not show any PARP-1 inhibition activity; also recorded: failed to inhibit PARP-1 activity”.

In the case of `CCN(CC)CCNC(=O)c1ccc2c(c1)NC(=O)c1ccccc1N2` [K245-14], in experiment [1], the “rescue of oxidant-mediated ATP loss and cell death” value is “rescued oxidant-mediated ATP loss and cell death”. In addition, in experiment [5], the “protective effect in α-synuclein toxicity assay” value is recorded as “small but reproducible protective effects”. The “rescue of loss of ATP” value in experiment [2] and in experiment [3] was “rescued loss of ATP” throughout. The negative logarithm of the IC50 (pIC50) in experiment [4] (setting [6]) is 5.70.

`COc1ccc(N2CCN(C(=O)c3ccc4c(c3)NC(=O)c3ccccc3N4)CC2)cc1` [K245-39A]: the pIC50 in experiment [4] (setting [7]) was 5.26.

For `O=C1Nc2cc(C(=O)N3CCN(Cc4ccccc4)CC3)ccc2Nc2ccccc21` [K245-42], in experiment [4] (setting [7]), the pIC50 was 5.66.

For the compound `O=C1Nc2cc(C(=O)N3CCCC3)ccc2Nc2ccccc21` [K245-80], in experiment [4] (setting [7]), the pIC50 is 5.46.

Consider `O=C1Nc2cc(C(=O)N3CCN(c4ccc(Cl)cc4)CC3)ccc2Nc2ccccc21` [K245-88], for which, in experiment [4] (setting [7]), the pIC50 was 6.82.

As for `O=C1Nc2cc(C(=O)N3CCN(c4ccccc4F)CC3)ccc2Nc2ccccc21` [K245-89], the pIC50 in experiment [4] (setting [7]) was 6.26.

Consider `COC(CNC(=O)c1ccc2c(c1)NC(=O)c1ccccc1N2)OC` [K245-95], for which the negative logarithm of the IC50 (pIC50) in experiment [4] (setting [7]) is 5.70.

`CCN(CCCNC(=O)c1ccc2c(c1)NC(=O)c1ccccc1N2)c1cccc(C)c1` [K245-99]: in experiment [4] (setting [7]), the negative-log IC50 (pIC50) is 5.40.

As for `OO` [hydrogen peroxide], the pEC50 in experiment [2] (mutant HD lymphoblasts) was 4.22; in experiment [2] (normal lymphoblasts) it was 3.92; in experiment [3] (Mus musculus, mutant HD striatal cells), 3.39; in experiment [3] (Mus musculus, wildtype striatal cells) it was 3.26; in experiment [3] (mutant HD striatal cells), 3.38. The “loss of ATP from basal ATP levels” value in experiment [3] (mutant striatal cells) is on record as 80%; in experiment [3] (wildtype striatal cells), 20%.

Values taken from US20070105835A1, “Compositions and methods for modulating poly(ADP-ribose) polymerase activity” (priority 2005, published 2007).
